Reference: patent publication US7786160B2, “Combination of selected analgesics and COX-II inhibitors” (Gruenenthal GmbH, priority 2002, dated 2010)
Where two headings read alike, the source gives them in different places.

What was measured:
Assay type in all cases: in vivo
rat [1] = assay: Randall-Selitto test (yeast oedema, model for inflammatory pain); details: for effect of compound A with COX-II inhibitor (Rofecoxib or Celecoxib) compared with additive (in words): staggered administration, Rofecoxib or Celecoxib 1 hour prior to compound A
Method: The Randell-Selitto test of Randall and Selitto (Arch. Int. Pharmacodyn., 1957, 111: 409 to 419) is a model for inflammatory pain.
By means of the injection of 0.1 ml 20% baking yeast suspension ventrally into a hind paw an oedema was induced, on which pain was generated 4 hours later by continuously increasing pressure with a stamp (2 mm tip diameter). The measured value to be determined and at the same time also the end point of the pain test was the pressure at which the vocalisation reaction of the animal occurred. The percentage maximum possible effect (%MPE) was calculated. The maximum pressure of the stamp was 250 g. The group size was n=10.
The theoretical additive value was calculated by adding the mean values from the individual tests of the test substance and COX-II inhibitor. The corresponding standard deviation of the theoretical additive mean value was calculated from the addition of the variances.

[2] = All listed animal models together (acute, chronic and inflammatory pain); details: simultaneous administration with a selective COX-II inhibitor (Rofecoxib or Celecoxib), chronic and inflammatory pain (Table 1)
Method: 1, 4, 2 and 2 (Randall-Selitto test). In these tests, either Rofecoxib or Celecoxib was administered 1 hour prior to the administration of the selected analgesic (compound A). In a few tests, Rofecoxib was administered as the final preparation Vioxx and Celecoxib as Celebrex.

mouse = assay: Formalin test (chronic pain component), mouse; details: peroral, substance alone
Method: (§1) The formalin test (Dubuisson, D. and Dennis, S. G., 1977, Pain, 4, 161 to 174) is a model for acute and chronic pain. In the tests presented here, the chronic pain component was evaluated.
(§2) By means of a single formalin injection into the dorsal side of a hind paw of test animals that were able to move freely, a biphasic nociceptive reaction, which was detected by the observation of three clearly distinguishable behavioural patterns, was induced.
(§3) Formalin having a volume of 20 μl and a concentration of 1% was administered subcutaneously into the dorsal side of the right hind paw of each animal. The specific behavioural changes, such as raising and shaking of the paw, weight loss in the animal and biting and licking reactions, were continuously observed and registered for up to 60 min after the formalin administration. The behavioural changes were weighted differently (a score of 0 to 3) and a pain rate (PR) calculated having the general formula: PR=[(T0×0)+(T1×1)+(T2×2)+(T3×3)/180.
(§4) The group contained 10 animals (n=10).

rat [3] = assay: Writhing test (acetic acid, model for acute pain); details: peroral, substance alone
Method: The writhing test is a modification of the method of Schmauss C and Yaksh TL, J Pharmacol Exp Ther 228: 1-12 (1984) and a model for acute pain.
9% acetic acid was administered to the animals intraperitoneally as a pain stimulus. This was administered 30 min (test substance perorally) or 10 min (test substance intravenously) after the administration of the test substance. The pain-induced writhing reactions were recorded 10 to 35 min after the administration of acetic acid. […] Pain expressions, such as a slanting body angle when the animal stands upright, frequent cleaning of the belly or arching of the back without stretching of the rear limbs, were thus included in the evaluation.
The animals that had been treated with the substance were compared with a control group, which had been given physiological saline solution. The group contained 10 animals (n=10).

rat [4] = assay: Formalin test (chronic pain component), rat; details: peroral, substance alone
Method: as §1, §2, §3, §4

[5] = read-out: ED50 [mg/kg] of compound A
[6] = read-out: ED50 [mg/kg] of COX-II inhibitor

With `COc1cccc([C@@]2(O)C[C@H](O)CC[C@@H]2CN(C)C)c1.Cl` (racemic) [Compound 4] the “% effect of compound A” value (rat [1]; Table 2, staggered series, compound A alone 68.1 mg/kg peroral, 15-75 min after administration of compound No. 4) was 85.4%, the “% effect of compound A” value (rat [1]; Table 2, staggered series, compound A alone 68.1 mg/kg peroral, 75-90 min after administration of compound No. 4) was 45.2% and the “effect of compound A with COX-II inhibitor (Rofecoxib or Celecoxib) compared with additive (in words)” value (rat [1]) was “clear effect-increasing supra-additive effect”.

In the case of `CN(C)C[C@@H]1CCCC[C@H]1c1cccc(O)c1.Cl` [Compound 1, (1R,2R)-3-(2-dimethylaminomethyl-cyclohexyl)-phenol; hydrochloride], the “% effect of compound A” value (rat [1]; Table 3, staggered series, compound A alone 46.4 mg/kg peroral) is reported as 26.2%, the “effect of compound A with COX-II inhibitor (Rofecoxib or Celecoxib) compared with additive (in words)” value (rat [1]) is reported as “clear effect-increasing supra-additive effect” and the “effect in comparison to the theoretically calculated purely additive effect” value [2] is reported as “intensification of effect”.

For `CC[C@@H](c1cccc(O)c1)[C@@H](C)CN(C)C.Cl` [Compound 2, (1R,2R)-3-(3-dimethylamino-1-ethyl-2-methyl-propyl)-phenol; hydrochloride], the ED50 (mouse; [5]) was 34.6 mg/kg, the “% effect of compound A” value (rat [1]; Table 1, staggered administration series, compound A alone 31 mg/kg peroral) was 20.0% and the “% effect of compound A” value (rat [1]; Table 1, staggered administration series, compound A alone 46 mg/kg peroral) was 32.6%. The “% effect of compound A” value (rat [1]; fixed dose combination (not staggered), compound A alone 31 mg/kg peroral, %MPE) was 13.3%, the “effect of compound A with COX-II inhibitor (Rofecoxib or Celecoxib) compared with additive (in words)” value (rat [1]) was “clear effect-increasing supra-additive effect” and the ED50 (rat [3]; [5]) was 33 mg/kg. The ED50 (rat [4]; [5]) was 18 mg/kg.

With `CC[C@H](c1cccc(O)c1)[C@H](C)CN(C)C.Cl` [Compound 3, (1S,2S)-3-(3-dimethylamino-1-ethyl-2-methyl-propyl)-phenol; hydrochloride] the “% effect of compound A” value (rat [1]; Table 4, staggered series, compound A alone 21.5 mg/kg peroral) was 22.8%.

For `Cc1ccc(-c2cc(C(F)(F)F)nn2-c2ccc(S(N)(=O)=O)cc2)cc1` [Compound 101, Celecoxib, reference compound], the ED50 (mouse; [6]) was 38.5 mg/kg, the “% effect of COX-II inhibitor” value (rat [1]; fixed dose combination (not staggered), COX-II inhibitor alone 215 mg/kg peroral, %MPE) was 9.8% and the ED50 (rat [4]; [6]) was 154 mg/kg.

Compound `CS(=O)(=O)c1ccc(C2=C(c3ccccc3)C(=O)OC2)cc1` [Compound 102, Rofecoxib, reference compound] has an ED50 (rat [3]; [6]) of 60.1 mg/kg.
